# Reference: patent US7820675B2, “Benzofuran compounds” (Biovitrum AB, priority 2003, dated 2010)
# Counter-ions that a name gives are not always drawn.
# Key:
# [1] = target: T1, human 5-HT6 receptor (Homo sapiens, UniProt P50406); experiment: 5-HT6 intrinsic activity assay (inhibition of 5-HT induced increase in cAMP); assay type: cell-based; conditions: read-out: fKi
# T1 construct: expressed in transfected cells; host or cells: HEK293
# Method: Briefly, HEK293/5-HT6 cells were seeded in polylysine coated 96-well plates at a density of 25,000/well and grown in DMEM (Dulbecco's Modified Eagle Medium) (without phenol-red) containing 5% dialyzed Foetal Bovine Serum for 48 h at 37° C. in a 5% CO2 incubator. The medium was then aspirated and replaced by 0.1 mL assay medium (Hanks Balance Salt Solution containing 20 mM HEPES, 1.5 mM isobutylmethylxanthine and 1 mg/mL bovine serum albumin). After addition of test substances, 50 μl dissolved in assay medium, the cells were incubated for 10 min at 37° C. in a 5% CO2 incubator. The medium was again aspirated and the cAMP content was determined using a radioactive cAMP kit (Amersham Pharmacia Biotech, BIOTRAK RPA559).
# Table 4. Functional in vitro data at the h-5-HT receptor (fKi). Data are expressed as fKi,=IC50/(1+[5HT]/EC50).
# [2] = target: T1, human 5-HT6 receptor; experiment: 5-HT6 binding assay ([3H]-LSD competition, SPA, membranes of transfected HEK293 cells); conditions: for Ki: competitive binding, [3H]-LSD radioligand, Ki calculated from IC50 (Cheng)
# T1 sequence (P50406 whole entry): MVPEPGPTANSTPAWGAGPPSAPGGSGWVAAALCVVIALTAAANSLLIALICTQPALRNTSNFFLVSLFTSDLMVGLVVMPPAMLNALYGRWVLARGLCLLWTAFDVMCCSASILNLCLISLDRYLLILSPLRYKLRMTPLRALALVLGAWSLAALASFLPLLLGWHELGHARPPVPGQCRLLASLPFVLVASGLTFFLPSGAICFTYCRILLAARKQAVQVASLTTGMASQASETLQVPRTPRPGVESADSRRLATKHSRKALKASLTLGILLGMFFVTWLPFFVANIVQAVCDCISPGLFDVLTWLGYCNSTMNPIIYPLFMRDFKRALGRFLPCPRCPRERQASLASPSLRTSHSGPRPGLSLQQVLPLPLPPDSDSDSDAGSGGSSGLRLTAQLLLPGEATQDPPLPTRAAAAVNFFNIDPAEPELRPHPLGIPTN
SMILES,Ki [1],Ki [2],other results
"COc1ccc(C)cc1S(=O)(=O)Nc1cc(C2=CN3CCC2CC3)c2occc2c1 [Example 33, N-[7-(1-Aza-bicyclo[2.2.2]oct-2-en-3-yl)-benzofuran-5-yl]-2-methoxy-5-methylbenzenesulfonamide hydrochloride]",20 nM,–,–
"COc1ccc(C)cc1S(=O)(=O)Nc1cc(O[C@H]2CCNC[C@H]2F)c2occc2c1 (relative stereo) [Example 84, N-(7-{[cis-3-Fluoropiperidin-4-yl]oxy}-1-benzofuran-5-yl)-2-methoxy-5-methylbenzenesulfonamide hydrochloride]",–,7.5 nM,–
"Fc1ccc(CNc2cc(N3CCNCC3)c3occc3c2)cc1F [Example 12, N-(3,4-Difluorobenzyl)-7-piperazin-1-yl-1-benzofuran-5-amine hydrochloride]",87 nM,–,–
"COc1ccc(C)cc1NS(=O)(=O)c1cc(CN2CCNC(C)C2)c2occc2c1 (stereo not shown) [Example 92, N-(2-Methoxy-5-methylphenyl)-7-[(3-methylpiperazin-1-yl)methyl]-1-benzofuran-5-sulfonamide hydrochloride]",–,5.56 nM,–
"O=S(=O)(Nc1cc(-c2cncnc2)c2occc2c1)c1ccccc1 [Example 32, N-(7-Pyrimidin-5-yl-1-benzofuran-5-yl)benzenesulfonamide hydrochloride]",54 nM,–,–
"Cc1cccc(S(=O)(=O)Nc2cc(O[C@@H]3CCNC[C@H]3F)c3occc3c2)c1 (relative stereo) [Example 89, N-(7-{[trans-3-Fluoropiperidin-4-yl]oxy}-1-benzofuran-5-yl)-3-methylbenzenesulfonamide hydrochloride]",–,14 nM,–
"CNCCCN(C)c1cc(NS(=O)(=O)c2ccccc2)cc2ccoc12 [Example 1, N-(7-{Methyl[3-(methylamino)propyl]amino}-1-benzofuran-5-yl)benzenesulfonamide hydrochloride]",87 nM,–,–
"NCCc1c[nH]c2ccc(O)cc12 [Example 5-HT, 5-hydroxytryptamine, reference compound]",–,–,Hill coefficient ([2]; over three experiments): 0.94 (SD 0.09)
"COc1ccc(C)cc1S(=O)(=O)Nc1cc(O[C@@H]2CCNC[C@H]2F)c2occc2c1 (relative stereo) [Example 85, N-(7-{[trans-3-Fluoropiperidin-4-yl]oxy}-1-benzofuran-5-yl)-2-methoxy-5-methylbenzenesulfonamide hydrochloride]",–,7 nM,–
"COc1ccc(C)cc1S(=O)(=O)Nc1cc(-c2ccncc2)c2occc2c1 [Example 28, 2-Methoxy-5-methyl-N-(7-pyridin-4-yl-1-benzofuran-5-yl)benzenesulfonamide]",66 nM,–,–
"O=S(=O)(Nc1cccc2cc(C3=CN4CCC3CC4)oc12)c1ccccc1 [Example 36, N-[2-(1-Azabicyclo[2.2.2]oct-2-en-3-yl)-1-benzofuran-7-yl]benzenesulfonamide hydrochloride]",–,20 nM,–
"CCN1CCC[C@@H]1CNc1cc(NS(=O)(=O)c2ccccc2C(F)(F)F)cc2ccoc12 [Example 67, N-[7-({[(2R)-1-Ethylpyrrolidin-2-yl]methyl}amino)-1-benzofuran-5-yl]-2-(trifluoromethyl)benzenesulfonamide hydrochloride]",–,13 nM,–
"O=S(=O)(Nc1cc(O[C@@H]2CCNC[C@H]2F)c2occc2c1)c1cc(F)ccc1Cl (relative stereo) [Example 91, 2-Chloro-5-fluoro-N-(7-{[trans-3-fluoropiperidin-4-yl]oxy}-1-benzofuran-5-yl)benzenesulfonamide hydrochloride]",–,56 nM,–
"O=S(=O)(Nc1cc(O[C@H]2CCNC[C@H]2F)c2occc2c1)c1ccccc1C(F)(F)F (relative stereo) [Example 86, N-(7-{[cis-3-Fluoropiperidin-4-yl]oxy}-1-benzofuran-5-yl)-2-(trifluoromethyl)benzenesulfonamide hydrochloride]",–,7 nM,–
"O=S(=O)(Nc1cc(O[C@@H]2CCNC[C@H]2F)c2occc2c1)c1ccccc1C(F)(F)F (relative stereo) [Example 87, N-(7-{[trans-3-Fluoropiperidin-4-yl]oxy}-1-benzofuran-5-yl)-2-(trifluoromethyl)benzenesulfonamide hydrochloride]",–,5.3 nM,–
"COc1ccc(C)cc1S(=O)(=O)Nc1cc(CN2CCNCC2)c2occc2c1 [Example 54, 2-Methoxy-5-methyl-N-[7-(piperazin-1-ylmethyl)-1-benzofuran-5-yl]benzenesulfonamide hydrochloride]",–,17.4 nM,–
